# In the supplement of paper PMC4862054:
# Columns and labels:
# Details in all cases: incubation time: 72 h
# BT-474 [1] = assay: normalised response (% of control), CellTox Green; higher = less cell death (100 = DMSO, 0 = benzethonium chloride kill control)
# In short: (§1)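 Breast cancer cell lines in 20 µl suspension were added to 384-well plates containing compound at 5 concentrations, spaced in 10-fold steps across a 10,000-fold range chosen for each compound, and incubated for 72 h. CellTox Green fluorescence was read at 485/520 nm, followed by CellTiter-Glo luminescence after 10 min at room temperature. Signals on each plate were normalised so that 0.1 % DMSO equals 100 and a positive kill control equals 0. Every value in the table is the normalised signal at one concentration of the series.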
# BT-549 [2] = assay: as above
# In short: as §1
# CAL-120 [3] = assay: as above
# In short: as §1
# CAL-148 [4] = assay: as above
# In short: as §1
# CAL-51 [5] = assay: as above
# In short: as §1
# CAL-85-1 [6] = assay: as above
# In short: as §1
# DU-4475 [7] = assay: as above
# In short: as §1
# HCC1143 [8] = assay: as above
# In short: as §1
# HCC1599 [9] = assay: as above
# In short: as §1
# HCC1937 [10] = assay: as above
# In short: as §1
# HDQ-P1 [11] = assay: as above
# In short: as §1
# Hs578T [12] = assay: as above
# In short: as §1
# MCF-10A [13] = assay: as above
# In short: as §1
# MDA-MB-231 [14] = assay: as above
# In short: as §1
# MDA-MB-436 [15] = assay: as above
# In short: as §1
# MDA-MB-453 [16] = assay: as above
# In short: as §1
# MDA-MB-468 [17] = assay: as above
# In short: as §1
# MFM-223 [18] = assay: as above
# In short: as §1
# BT-474 [19] = assay: normalised response (% of control), CellTiter-Glo; higher = more viable cells (100 = DMSO, 0 = benzethonium chloride kill control)
# Procedure: (§2)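 DSRT, 72 h incubation, CellTox Green / CellTiter-Glo readout. Signal is normalised to DMSO and benzethonium chloride controls. Value is the normalised response at the highest dose.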
# BT-549 [20] = assay: as above
# Procedure: as §2
# CAL-120 [21] = assay: as above
# Procedure: as §2
# CAL-148 [22] = assay: as above
# Procedure: as §2
# CAL-51 [23] = assay: as above
# Procedure: as §2
# CAL-85-1 [24] = assay: as above
# Procedure: as §2
# DU-4475 [25] = assay: as above
# Procedure: as §2
# HCC1143 [26] = assay: as above
# Procedure: as §2
# HCC1599 [27] = assay: as above
# Procedure: as §2
# HCC1937 [28] = assay: as above
# Procedure: as §2
# HDQ-P1 [29] = assay: as above
# Procedure: as §2
# Hs578T [30] = assay: as above
# Procedure: as §2
# MCF-10A [31] = assay: as above
# Procedure: as §2
# MDA-MB-231 [32] = assay: as above
# Procedure: as §2
# MDA-MB-436 [33] = assay: as above
# Procedure: as §2
# MDA-MB-453 [34] = assay: as above
# Procedure: as §2
# MDA-MB-468 [35] = assay: as above
# Procedure: as §2
# MFM-223 [36] = assay: as above
# Procedure: as §2
# SK-BR-3 = assay: as above
# Procedure: as §2
Structure (SMILES),normalised response (BT-474 [1]) [%],normalised response (BT-549 [2]) [%],normalised response (CAL-120 [3]) [%],normalised response (CAL-148 [4]) [%],normalised response (CAL-51 [5]) [%],normalised response (CAL-85-1 [6]) [%],normalised response (DU-4475 [7]) [%],normalised response (HCC1143 [8]) [%],normalised response (HCC1599 [9]) [%],normalised response (HCC1937 [10]) [%],normalised response (HDQ-P1 [11]) [%],normalised response (Hs578T [12]) [%],normalised response (MCF-10A [13]) [%],normalised response (MDA-MB-231 [14]) [%],normalised response (MDA-MB-436 [15]) [%],normalised response (MDA-MB-453 [16]) [%],normalised response (MDA-MB-468 [17]) [%],normalised response (MFM-223 [18]) [%],normalised response (BT-474 [19]) [%],normalised response (BT-549 [20]) [%],normalised response (CAL-120 [21]) [%],normalised response (CAL-148 [22]) [%],normalised response (CAL-51 [23]) [%],normalised response (CAL-85-1 [24]) [%],normalised response (DU-4475 [25]) [%],normalised response (HCC1143 [26]) [%],normalised response (HCC1599 [27]) [%],normalised response (HCC1937 [28]) [%],normalised response (HDQ-P1 [29]) [%],normalised response (Hs578T [30]) [%],normalised response (MCF-10A [31]) [%],normalised response (MDA-MB-231 [32]) [%],normalised response (MDA-MB-436 [33]) [%],normalised response (MDA-MB-453 [34]) [%],normalised response (MDA-MB-468 [35]) [%],normalised response (MFM-223 [36]) [%],normalised response (SK-BR-3) [%]
CO[C@H]1C[C@@H]2CC[C@@H](C)[C@@](O)(O2)C(=O)C(=O)N2CCCC[C@H]2C(=O)O[C@H]([C@H](C)C[C@@H]2CC[C@@H](OCCO)[C@H](OC)C2)CC(=O)[C@H](C)/C=C(\C)[C@@H](O)[C@@H](OC)C(=O)[C@H](C)C[C@H](C)/C=C/C=C/C=C/1C [Everolimus] (100 nM),100,100,99.3,92.5,98.1,122,95.4,66.4,95.8,88.6,109,79.6,92.9,111,99.7,104,158,53.1,77.6,61,63.5,53.4,64.3,63.1,63.7,61.5,104,66.1,72.9,65.1,80.9,87.9,75.5,51.5,57.5,61.6,49.5
C/C(=C\c1csc(C)n1)[C@@H]1C[C@@H]2O[C@]2(C)CCC[C@H](C)[C@H](O)[C@@H](C)C(=O)C(C)(C)[C@@H](O)CC(=O)O1 [Patupilone] (1000 nM),52.6,74.4,87.5,52.6,41.2,-11.4,100,53.7,92.5,103,93.3,-68.9,20.1,-10.5,78.4,96.4,97.4,55.5,36.8,18.5,58.4,54.1,25.4,20.7,49.2,31.3,25.3,74,62.4,12.2,41.5,29.8,31.5,53.2,36,47.4,11.7
CC(C)c1c(C(=O)Nc2ccccc2)c(-c2ccccc2)c(-c2ccc(F)cc2)n1CC[C@@H](O)C[C@@H](O)CC(=O)O [Atorvastatin] (10000 nM),104,102,45.3,99.2,-23.5,86.1,98,101,103,92.4,85.6,7.6,1.75,-37.9,83,88,121,101,11.1,70,47.4,94.8,21.2,52.7,87.4,55.3,83.4,68.3,44,37.8,4.77,3.78,71.4,89.7,19.1,76.1,79.8
CC[C@]1(O)C[C@H]2CN(CCc3c([nH]c4ccccc34)[C@@](C(=O)OC)(c3cc4c(cc3OC)N(C=O)[C@H]3[C@@](O)(C(=O)OC)[C@H](OC(C)=O)[C@]5(CC)C=CCN6CC[C@]43[C@@H]65)C2)C1 [Vincristine] (1000 nM),78.7,73.4,85,86.8,29.8,54.1,95.8,75.8,69.7,102,99.3,33.5,56.6,45.3,72.1,82.2,-25.1,65.1,53.5,38,62.2,59.3,23.8,50.1,42.5,55.3,12.2,73.2,71.5,25,68.1,48.4,28.8,63.8,38.2,44.2,18.5
